Patent US20120238762A1, “AZOLE DERIVATIVES AND METHODS FOR PRODUCING THE SAME, INTERMEDIATE COMPOUNDS FOR THE DERIVATIVES AND METHODS FOR PRODUCING THE SAME, AND AGRO-HORTICULTURAL AGENTS AND INDUSTRIAL MATERIAL PROTECTING AGENTS CONTAINING THE DERIVATIVES” (KUREHA CORPORATION, priority 2009, published 2012)

Key:
[1] = Mycelial growth inhibition on plate medium against industrial material deteriorating microorganisms, treatment at 50 mg/l; conditions: read-out: Growth inhibition grade
Procedure: Compound (I) was dissolved in 2 ml of dimethyl sulfoxide. 0.6 ml of this solution was added to 60 ml of a PDA medium (potato dextrose agar medium) and at about 60 degrees C., which was mixed thoroughly in a 100-ml conical flask, and poured into a dish, where it was solidified, thereby obtaining a plate medium containing the inventive compound at a certain concentration.
On the other hand, a subject microorganism previously cultured on a plate medium was cut out using a cork borer whose diameter was 4 mm, and inoculated to the test compound-containing plate medium described above. […] The growth degree of the microorganism on the test compound-containing plate medium was compared with the growth degree of the microorganism in the untreated group, and % mycelial growth inhibition was calculated by the following equation.
wherein R=% mycelial extension inhibition, dc=flora diameter in untreated plate, dt=flora diameter in treated plate.
The results obtained were evaluated as one of the 5 grades in accordance with the following criteria.
<Growth Inhibition Grade>
4: % Mycerial growth inhibition of less than 80 to 60% or higher
3: % Mycerial growth inhibition of less than 60 to 40% or higher
2: % Mycerial growth inhibition of less than 40 to 20% or higher

[2] = test system: various phytopathogenic fungi for plants and hazardous microorganism for industrial materials; test: microbe, parasite or virus in culture; format: cell-based; parameters: dose or concentration left out as unconfirmed
[3] = Alternaria alternata, read-out: Growth inhibition grade, A.m
[4] = Fusarium graminearum, read-out: Growth inhibition grade, F.g
[5] = Parastagonospora nodorum, read-out: Growth inhibition grade, P.n
[6] = Pyricularia oryzae, read-out: Growth inhibition grade, P.o
[7] = Rhynchosporium secalis, read-out: Growth inhibition grade, R.sec
[8] = Sclerotinia sclerotiorum, read-out: Growth inhibition grade, S.s
[9] = Ustilago nuda, read-out: Growth inhibition grade, U.n
[10] = read-out: Growth inhibition grade, B.c
[11] = read-out: Growth inhibition grade, F.c
[12] = read-out: Growth inhibition grade, G.f
[13] = read-out: Growth inhibition grade, P.h

SMILES | inhibition at 50 µg/mL [1] [%] | inhibition [2, 3] [%] | inhibition [2, 4] [%] | inhibition [2, 5] [%] | inhibition [2, 6] [%] | inhibition [2, 7] [%] | inhibition [2, 8] [%] | inhibition [2, 9] [%] | inhibition [2, 10] [%] | inhibition [2, 11] [%] | inhibition [2, 12] [%] | inhibition [2, 13] [%] | melting point [°C]
OC(Cn1cncn1)(C1CC1(Cl)Cl)C1(Cl)CC1 (single isomer, unassigned) [I-2a, 1-(1-chlorocyclopropyl)-1-(2,2-dichlorocyclopropyl)-2-(1H-1,2,4-triazol-1-yl)ethanol] | 60 to 80 | > 80 | > 80 | > 80 | > 80 | > 80 | > 80 | > 80 | > 80 | > 80 | > 80 | > 80 | 
OC(CC1CC1(Br)Br)(Cn1cncn1)C1(Cl)CC1 (single isomer, unassigned) [I-210a, 2-(1-chlorocyclopropyl)-1-(2,2-dibromocyclopropyl)-3-(1H-1,2,4-triazol-1-yl)propan-2-ol] | 60 to 80 | > 80 | > 80 | > 80 | > 80 | > 80 | > 80 | > 80 | > 80 | > 80 | > 80 | > 80 | 114
OC(CCC1CC1(Cl)Cl)(Cn1cncn1)C1(Cl)CC1 (single isomer, unassigned) [I-607a, 2-(1-chlorocyclopropyl)-4-(2,2-dichlorocyclopropyl)-1-(1H-1,2,4-triazol-1-yl)butan-2-ol] |  | > 80 | > 80 | > 80 | > 80 | > 80 | > 80 | > 80 | > 80 | > 80 | > 80 | > 80 | 130 to 131
OC(CC1CC1(Cl)Cl)(CC1CC1(Cl)Cl)Cn1cncn1 (single isomer, unassigned) [I-277a, 1,3-bis(2,2-dichlorocyclopropyl)-2-(1H-1,2,4-triazol-1-ylmethyl)propan-2-ol] |  |  |  |  |  |  |  |  |  |  |  |  | 114 to 115
OC(CCC1CC1(Cl)Cl)(Cn1cncn1)C1(Cl)CC1 (single isomer, unassigned) [I-607b, 2-(1-chlorocyclopropyl)-4-(2,2-dichlorocyclopropyl)-1-(1H-1,2,4-triazol-1-yl)butan-2-ol] | 60 to 80 |  |  |  |  |  |  |  |  |  |  |  | 83 to 84
OC(CC1CC1(Cl)Cl)(CC1CC1(Cl)Cl)Cn1cncn1 (single isomer, unassigned) [I-277b, 1,3-bis(2,2-dichlorocyclopropyl)-2-(1H-1,2,4-triazol-1-ylmethyl)propan-2-ol] |  |  |  |  |  |  |  |  |  |  |  |  | 105 to 106.5
